The results in this text go back to US12428370B2, “Haloallylamine dual amine oxidase inhibitors” (Syntara Limited, priority 2020, dated 2025).

Assay [1] relates to mdx mice (C57BL/10ScSn-Dmdmdx/J). In words: Mouse model of Duchenne muscular dystrophy, Compound 1. It is filed as in vivo. To be noted: 4.8 mg/kg/day oral. As to the method: Three-months old mdx mice (C57BL/10ScSn-Dmdmdx/J) received daily doses of Compound 1 (in a range of 1-6 mg/kg) administered in the drinking water for thirty days. Untreated, age-matched animals were used as controls. A second cohort of mice aged 10 months-old received daily doses of Compound 1 (in a range of 1-6 mg/kg) administered in the drinking water for ninety days. Untreated, age-matched animals were used as controls.
After the end of each treatment period, animals were sacrificed by cervical dislocation and the skeletal muscle and the heart (minus the atria) collected, flash-frozen in isopentane pre-cooled with liquid nitrogen and stored at −80° C. 12 μm sections from the diaphragm muscle were prepared with a cryotome; multiple serial slides were prepared, containing sections from at least three different levels. The same procedure was used to prepare heart transverse sections.
The amount of the neutrophil and macrophage infiltration, reactive oxygen species (ROS) present and the percentage of fibrotic tissue, was determined as described in EXAMPLE 17.

Assay [2] concerns the target T1, human recombinant SSAO/VAP-1 (Homo sapiens, UniProt Q16853).
T1 construct: a cloned cDNA template corresponding to residues 34-763 of human SSAO/VAP-1; TEV cleavage site (N); made in house
T1 sequence (Q16853 34-763): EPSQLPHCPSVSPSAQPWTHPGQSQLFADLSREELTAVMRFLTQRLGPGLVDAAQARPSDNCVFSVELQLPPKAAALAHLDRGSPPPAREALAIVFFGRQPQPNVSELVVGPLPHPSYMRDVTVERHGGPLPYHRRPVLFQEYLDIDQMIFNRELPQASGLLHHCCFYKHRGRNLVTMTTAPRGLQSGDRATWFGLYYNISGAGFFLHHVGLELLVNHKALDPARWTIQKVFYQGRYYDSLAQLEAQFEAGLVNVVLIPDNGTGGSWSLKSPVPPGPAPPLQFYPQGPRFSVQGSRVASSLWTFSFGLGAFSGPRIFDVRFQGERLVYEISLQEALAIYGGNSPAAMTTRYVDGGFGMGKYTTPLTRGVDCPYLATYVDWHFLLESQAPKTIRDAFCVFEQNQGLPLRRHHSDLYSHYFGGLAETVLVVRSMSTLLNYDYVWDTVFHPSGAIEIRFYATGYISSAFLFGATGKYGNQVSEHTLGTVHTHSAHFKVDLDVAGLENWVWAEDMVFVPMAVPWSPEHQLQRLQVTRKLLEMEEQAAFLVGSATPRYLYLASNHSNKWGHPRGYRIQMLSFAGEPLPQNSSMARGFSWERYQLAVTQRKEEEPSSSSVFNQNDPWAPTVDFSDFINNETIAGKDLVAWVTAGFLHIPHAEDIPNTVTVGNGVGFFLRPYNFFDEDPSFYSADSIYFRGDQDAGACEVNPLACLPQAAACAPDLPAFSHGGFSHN
In words: Inhibition of human recombinant SSAO/VAP-1 (Amplex Red fluorometric assay). To be noted: 30 min incubation, 37° C., benzylamine substrate. It is filed as biochemical. How it is done:
Method to Determine the Ability of Compounds of Formula I to Inhibit Human Recombinant SSAO/VAP-1
Human recombinant SSAO/VAP-1 amine oxidase activity was determined using the method as described for monoamine oxidase, copper-containing amine oxidases and related enzymes (Holt A. and Palcic M., Nat. Protoc. 2006, 1, 2498-2505). Briefly, a cloned cDNA template corresponding to residues 34-763 of human SSAO/VAP-1, and incorporating a mouse Ig kappa (κ) signal sequence, N-terminal flag epitope tag and tobacco etch virus (TEV) cleavage site, was assembled in a mammalian expression vector (pLO-CMV) by Geneart AG. This vector containing human SSAO/VAP-1 residues was transfected into CHO-K1 glycosylation mutant cell line, Lec 8. A clone stably expressing human SSAO/VAP-1 was isolated and cultured in large scale. Active human SSAO/VAP-1 was purified and recovered using immunoaffinity chromatography. This was used as the source for SSAO/VAP-1 activity. A high-throughput colorimetric assay was developed using either 96 or 384 well format. Briefly, in a standard 96 well plate assay 50 μL of purified human SSAO/VAP-1 (0.25 μg/mL) in 0.1 M sodium phosphate buffer (pH 7.4) was added into each well. […] After 30 min incubation, 50 μL of the reaction mixture containing 600 μM benzylamine (Sigma Aldrich), 120 μM Amplex Red (Sigma Aldrich) and 1.5 U/mL horseradish peroxidase (Sigma Aldrich) prepared in 0.1 M sodium phosphate buffer (pH 7.4) were added to the corresponding well. The fluorescence unit (RFU) was read every 2.5 min for 30 min at 37° C. excitation 565 nm and emission 590 nm (Optima; BMG labtech). The slope of the kinetics for each well was calculated using MARS data analysis software (BMG labtech) and this value was used to deduce the IC50 value (Dotmatics).

As usually defined, the IC50 is the concentration at which inhibition is half-maximal. Turning to `N#Cc1ccc(OC/C(=C/F)CN)cc1` [Compound 1, (E)-4-((2-(aminomethyl)-3-fluoroallyl)oxy) benzonitrile], in assay [1] (ninety days, 10 months-old mdx mice, p<0.0001, FIG. 13), the “cardiac fibrosis (picrosirius red staining in the heart muscle)” value is “significantly reduces”. Also, in assay [1] (thirty days, 3 months-old mdx mice, p<0.0001, FIG. 12A), the “neutrophil influx in the diaphragm muscle” value is recorded as “significantly reduces”. In assay [1] (thirty days, 3 months-old mdx mice, p<0.0001, FIG. 12B), the “macrophage influx in the diaphragm muscle” value is “significantly reduces”. The “reactive oxygen species in the diaphragm muscle” value in assay [1] (thirty days, 3 months-old mdx mice, p<0.0001, FIG. 12C) was “significantly reduces”. Besides, the “fibrosis (picrosirius red staining) in the diaphragm muscle” value in assay [1] (thirty days, 3 months-old mdx mice, p<0.0001, FIG. 12D) is given as “significantly reduces”. Also, the half-inhibitory concentration (IC50) in assay [2] is under 10 nM.
